ChEMBL document CHEMBL1201862, “PubChem BioAssay data set” (2004)
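Five concentrations, 48 hours, 96-well plates. Here, GI50 denotes the concentration required for 50% inhibition of growth.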 Activity calls are given as the source filed them. Rule as the data show it: active = GI50 up to about 1.1 µM and inactive = higher.

Assays:
Assay in all cases: inhibition of tumour cell growth, NCI panel, 48 h
[1] = tested on: HOP-92
[2] = tested on: IGROV-1
[3] = tested on: COLO 205
[4] = tested on: NCI-H23
[5] = tested on: MOLT-4
[6] = tested on: SNB-78
[7] = tested on: M14
[8] = tested on: DMS-273
[9] = tested on: HL-60
[10] = tested on: CAKI-1
[11] = tested on: OVCAR-4
[12] = tested on: SW-620
[13] = tested on: SN12C
[14] = tested on: OVCAR-5
[15] = tested on: SF-268
[16] = tested on: SK-MEL-2
[17] = tested on: NCI-H522
[18] = tested on: LXFL 529
[19] = tested on: HCT-15
[20] = tested on: HCC 2998
[21] = tested on: HCT-116
[22] = tested on: CCRF-CEM
[23] = tested on: SNB-19
[24] = tested on: ACHN
[25] = tested on: DLD-1
[26] = tested on: DMS-114
[27] = tested on: SF-539
[28] = tested on: KM12
[29] = tested on: SK-MEL-28
[30] = tested on: EKVX
[31] = tested on: RPMI-8226
[32] = tested on: M19-MEL
[33] = tested on: HOP-62
[34] = tested on: SK-OV-3
[35] = tested on: K562
[36] = tested on: RXF 393
[37] = tested on: SNB-75
[38] = tested on: UACC-257
[39] = tested on: LOX IMVI
[40] = tested on: UO-31
[41] = tested on: SK-MEL-5
[42] = tested on: OVCAR-8
[43] = tested on: OVCAR-3
[44] = tested on: A549
[45] = tested on: 786-0
[46] = tested on: A498
[47] = tested on: Malme-3M
[48] = tested on: TK-10
[49] = tested on: SF-295
[50] = tested on: U-251
[51] = tested on: NCI-H460
[52] = tested on: UACC-62
[53] = tested on: KM-20L2
[54] = tested on: HOP-18
[55] = tested on: NCI-H226
[56] = tested on: HT-29

In the case of `CCOc1ccccc1C=C1c2ccccc2C(=O)c2ccccc21`, the GI50 [1] is reported as 5.48 µM (inactive), the GI50 [2] is reported as 3.58 µM (inactive) and the GI50 [3] is reported as 3.78 µM (inactive). The GI50 [4] was 4.06 µM (inactive), the GI50 [5] was 4.3 µM (inactive) and the GI50 [6] was 5.75 µM (inactive). For the same compound, the GI50 [7] was 5.83 µM (inactive), the GI50 [8] was 0.535 µM (active) and the GI50 [9] was 2.99 µM (inactive). For the same compound, the GI50 [10] was 2.11 µM (inactive), the GI50 [11] was 22.1 µM (inactive) and the GI50 [12] was 3.72 µM (inactive). For the same compound, the GI50 [13] was 6.56 µM (inactive), the GI50 [14] was 12.8 µM (inactive) and the GI50 [15] was 5.07 µM (inactive). For the same compound, the GI50 [16] was 2.94 µM (inactive), the GI50 [17] was 2.36 µM (inactive) and the GI50 [18] was 6.98 µM (inactive). For the same compound, the GI50 [19] was 0.804 µM, the GI50 [20] was 3.63 µM (inactive) and the GI50 [21] was 4.63 µM (inactive). For the same compound, the GI50 [22] was 4.32 µM (inactive), the GI50 [23] was 3.63 µM (inactive) and the GI50 [24] was 8.63 µM (inactive). The GI50 [25] was 2.55 µM (inactive), the GI50 [26] was 3.42 µM (inactive) and the GI50 [27] was 2.16 µM (inactive). The GI50 [28] was 0.673 µM (active), the GI50 [29] was 12 µM (inactive) and the GI50 [30] was 3.23 µM (inactive). For the same compound, the GI50 [31] was 3.81 µM (inactive), the GI50 [32] was 5.93 µM (inactive) and the GI50 [33] was 3.76 µM (inactive). For the same compound, the GI50 [34] was 3.03 µM (inactive), the GI50 [35] was 3.32 µM (inactive) and the GI50 [36] was 2.04 µM (inactive). The GI50 [37] was 2.17 µM (inactive), the GI50 [38] was 4.21 µM (inactive) and the GI50 [39] was 8.69 µM (inactive). For the same compound, the GI50 [40] was 2.59 µM (inactive), the GI50 [41] was 2.75 µM (inactive) and the GI50 [42] was 5.27 µM (inactive). For the same compound, the GI50 [43] was 2.5 µM (inactive), the GI50 [44] was 5.16 µM (inactive) and the GI50 [45] was 3.38 µM (inactive). For the same compound, the GI50 [46] was 6.75 µM (inactive), the GI50 [47] was 8.15 µM (inactive) and the GI50 [48] was 4.56 µM (inactive). The GI50 [49] was 3.82 µM (inactive), the GI50 [50] was 4.37 µM (inactive) and the GI50 [51] was 4.15 µM (inactive). For the same compound, the GI50 [52] was 3.34 µM (inactive).
With `CCO/C([O-])=C(\C(=O)c1ccccc1)[n+]1c(C)n(C)c2ccccc21` the GI50 [2] was > 100 µM (inactive), the GI50 [3] was > 100 µM (inactive) and the GI50 [53] was > 100 µM (inactive). For the same compound, the GI50 [4] was > 100 µM (inactive), the GI50 [5] was > 100 µM (inactive) and the GI50 [6] was > 100 µM (inactive). For the same compound, the GI50 [7] was > 100 µM (inactive), the GI50 [8] was > 100 µM (inactive) and the GI50 [9] was > 100 µM (inactive). The GI50 [10] was > 100 µM (inactive), the GI50 [11] was > 100 µM (inactive) and the GI50 [12] was > 100 µM (inactive). For the same compound, the GI50 [14] was > 100 µM (inactive), the GI50 [15] was > 100 µM (inactive) and the GI50 [16] was > 100 µM (inactive). The GI50 [17] was > 100 µM (inactive), the GI50 [18] was > 100 µM (inactive) and the GI50 [19] was greater than 100 µM. For the same compound, the GI50 [20] was > 100 µM (inactive), the GI50 [21] was > 100 µM (inactive) and the GI50 [22] was > 100 µM (inactive). The GI50 [23] was > 100 µM (inactive), the GI50 [25] was > 100 µM (inactive) and the GI50 [26] was > 100 µM (inactive). For the same compound, the GI50 [27] was > 100 µM (inactive), the GI50 [28] was > 100 µM (inactive) and the GI50 [29] was > 100 µM (inactive). The GI50 [30] was > 100 µM (inactive), the GI50 [31] was > 100 µM (inactive) and the GI50 [32] was > 100 µM (inactive). The GI50 [33] was > 100 µM (inactive), the GI50 [54] was > 100 µM (inactive) and the GI50 [55] was > 100 µM (inactive). For the same compound, the GI50 [34] was > 100 µM (inactive), the GI50 [35] was > 100 µM (inactive) and the GI50 [36] was > 100 µM (inactive). The GI50 [56] was > 100 µM (inactive), the GI50 [37] was > 100 µM (inactive) and the GI50 [38] was > 100 µM (inactive). The GI50 [39] was > 100 µM (inactive), the GI50 [40] was > 100 µM (inactive) and the GI50 [41] was > 100 µM (inactive). For the same compound, the GI50 [42] was > 100 µM (inactive), the GI50 [43] was > 100 µM (inactive) and the GI50 [44] was > 100 µM (inactive). For the same compound, the GI50 [45] was > 100 µM (inactive), the GI50 [46] was > 100 µM (inactive) and the GI50 [47] was > 100 µM (inactive). For the same compound, the GI50 [48] was > 100 µM (inactive), the GI50 [49] was > 100 µM (inactive) and the GI50 [50] was > 100 µM (inactive). The GI50 [51] was > 100 µM (inactive) and the GI50 [52] was > 100 µM (inactive).
